Measurements taken from patent publication US20060293307A1, “Oxazolidinone derivatives as antimicrobials” (priority 2002, published 2006).
Converted amounts (≈) assume the structure as drawn. Read-outs that look alike come from different tables or passages of the source.

Key:
[1] = tested on: M. avium intracellulare 19/97; test: MIC against MAC strains, agar dilution; assay type: cell-based; details: S. No. 17 Mai-10, M. avium intracellulare 19/97; Middle Brook 7H10 + OADC, 37° C., 14-21 days
M. intracellulare B-78/3 = test: MIC against MAC strains, agar dilution; assay type: cell-based; details: S. No. 09 Mi-4, M. intracellulare B-78/3; Middle Brook 7H10 + OADC, 37° C., 14-21 days
M. tuberculosis M-168 = test: MIC against M. tuberculosis strains, agar dilution; assay type: cell-based, Mycobacterium tuberculosis; details: Middle Brook 7H10 + OADC, 37° C., 14-21 days
M. avium ATCC 49601 = test: MIC against MAC strains, agar dilution; assay type: cell-based, Mycobacterium avium; details: S. No. 01 Ma-1, M. avium ATCC 49601, Middle Brook 7H10 + OADC, 37° C., 14-21 days
M. tuberculosis SGPGI = test: MIC against M. tuberculosis strains, agar dilution; assay type: cell-based, Mycobacterium tuberculosis; details: S. No. 06 Mt-, Middle Brook 7H10 + OADC, 37° C., 14-21 days
M. tuberculosis ATCC [2] = test: MIC against M. tuberculosis strains, agar dilution; assay type: cell-based, Mycobacterium tuberculosis; details: S. No. 03 Mt-, Middle Brook 7H10 + OADC, 37° C., 14-21 days
[3] = tested on: M. avium intracellulare 1211/96; test: MIC against MAC strains, agar dilution; assay type: cell-based; details: S. No. 13 Mai-5, M. avium intracellulare 1211/96; Middle Brook 7H10 + OADC, 37° C., 14-21 days
M. bovis ATCC 19210 = assay type: cell-based; details: S. No. 18 NTM, Middle Brook 7H10 + OADC, 37° C., 14-21 days
M. intracellulare F21/12 = test: MIC against MAC strains, agar dilution; assay type: cell-based; details: S. No. 08 Mi-3, M. intracellulare F21/12; Middle Brook 7H10 + OADC, 37° C., 14-21 days
M. tuberculosis V-3093 = test: MIC against M. tuberculosis strains, agar dilution; assay type: cell-based, Mycobacterium tuberculosis; details: Middle Brook 7H10 + OADC, 37° C., 14-21 days
M. tuberculosis PC = test: MIC against M. tuberculosis strains, agar dilution; assay type: cell-based, Mycobacterium tuberculosis; details: S. No. 18 Mt-, Middle Brook 7H10 + OADC, 37° C., 14-21 days
M. tuberculosis H37Ra = test: MIC against M. tuberculosis strains, agar dilution; assay type: cell-based, Mycobacterium tuberculosis; details: S. No. 24 Mt-, Middle Brook 7H10 + OADC, 37° C., 14-21 days
[4] = tested on: M. intracellulare ATCC 35761; test: MIC against MAC strains, agar dilution; assay type: cell-based; details: S. No. 07 Mi-2, M. intracellulare ATCC 35761; Middle Brook 7H10 + OADC, 37° C., 14-21 days
[5] = tested on: M. avium intracellulare 356/97; test: MIC against MAC strains, agar dilution; assay type: cell-based; details: S. No. 10 Mai-1, M. avium intracellulare 356/97; Middle Brook 7H10 + OADC, 37° C., 14-21 days
M. tuberculosis M-149 = test: MIC against M. tuberculosis strains, agar dilution; assay type: cell-based, Mycobacterium tuberculosis; details: Middle Brook 7H10 + OADC, 37° C., 14-21 days
[6] = tested on: M. avium intracellulare 18/98; test: MIC against MAC strains, agar dilution; assay type: cell-based; details: S. No. 16 Mai-9, M. avium intracellulare 18/98; Middle Brook 7H10 + OADC, 37° C., 14-21 days
M. tuberculosis ATCC [7] = test: MIC against M. tuberculosis strains, agar dilution; assay type: cell-based, Mycobacterium tuberculosis; details: S. No. 01.Mt-, Middle Brook 7H10 + OADC, 37° C., 14-21 days
[8] = tested on: M. intracellulare ATCC 13950; test: MIC against MAC strains, agar dilution; assay type: cell-based; details: S. No. 06 Mi-1, M. intracellulare ATCC 13950; Middle Brook 7H10 + OADC, 37° C., 14-21 days
H. influenzae βIac = test: MIC against Haemophilus strains; assay type: cell-based; details: Haemophilus influenzae; s. No. 3, H. influenzae βIac; read-out: MIC
Moraxella M6 = test: MIC, agar incorporation method; assay type: cell-based; details: Moraxella, M6
E. faecalis 5B (VRE) = test: MIC, agar incorporation method; assay type: cell-based; details: Enterococcus faecalis, VRE
139 = test: MIC, agar incorporation method; assay type: cell-based
Summary of the method: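 Doubling dilutions of compound in DMSO were incorporated into Mueller-Hinton agar; 10^4 CFU/spot inoculated from 0.5 McFarland suspensions and incubated 18 h (24 h for MRSN studies). MIC = lowest concentration without visible growth; valid only when ATCC reference strains gave in-range MICs.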

[9] = Mycobacterium tuberculosis, read-out: MIC

Row | SMILES | MIC [1] [µg/mL] | MIC (M. intracellulare B-78/3) [µg/mL] | MIC (M. tuberculosis M-168; S. No. 09 Mt-) [µg/mL] | MIC (M. avium ATCC 49601) [µg/mL] | MIC (M. tuberculosis SGPGI) [µg/mL] | MIC (M. tuberculosis ATCC [2]) | MIC [3] [µg/mL] | MIC (M. bovis ATCC 19210) [µg/mL] | MIC (M. intracellulare F21/12) [µg/mL] | MIC (M. tuberculosis V-3093; S. No. 14 Mt-) | MIC (M. tuberculosis PC) | MIC (M. tuberculosis H37Ra) | MIC [4] [µg/mL] | MIC [5] [µg/mL] | MIC (M. tuberculosis M-149; S. No. 15 Mt-) [µg/mL] | MIC [6] [µg/mL] | MIC (M. tuberculosis ATCC [7]) | MIC [8] [µg/mL] | other results
1 | CC[C@H]1OC(=O)[C@H](C)[C@@H](O[C@H]2C[C@@](C)(OC)[C@@H](O)[C@H](C)O2)[C@H](C)[C@@H](O[C@@H]2O[C@H](C)C[C@H](N(C)C)[C@H]2O)[C@](C)(OC)C[C@@H](C)C(=O)[C@H](C)[C@@H](O)[C@]1(C)O [CLA] | 32 | 1.0 | 8.0 | <0.25 | 32 | 32 µg/mL | 0.25 | 32 | 1.0 | 16 µg/mL | 32 µg/mL | <0.25 µg/mL | 0.5 | 2.0 | 16 | 32 | 32 µg/mL | 2.0 | 
2 | C[C@@H]1CN(c2c(F)c(N)c3c(=O)c(C(=O)O)cn(C4CC4)c3c2F)C[C@H](C)N1 [SPAR] | 1.0 | 2.0 | 2.0 | 0.5 | 4.0 | ≦0.125 μg/ml | 4.0 | <0.12 | 0.125 | ≦0.125 μg/ml | ≦0.125 μg/ml | ≦0.12 μg/ml | 2.0 | 2.0 | 2.0 | 2.0 | ≦0.125 μg/ml | 16 | 
3 | CC(=O)NC[C@H]1CN(c2ccc(N3CCOCC3)c(F)c2)C(=O)O1 [Linezolid, reference compound] |  |  |  |  |  |  |  |  |  |  |  |  |  |  |  |  |  |  | MIC (H. influenzae βIac): 8 µg/mL (≈ 23.7 µM); MIC (M. tuberculosis M-168; Mycobacterium tuberculosis, M168, S. No. 09 Mt-, read-out: MIC): 4 µg/mL; MIC (M. avium ATCC 49601; Mycobacterium avium, ATCC49601, read-out: MIC): 0.5 µg/mL; MIC (M. tuberculosis SGPGI; [9]): > 32 µg/mL; MIC (Moraxella M6): 4 µg/mL (≈ 11.9 µM); MIC (E. faecalis 5B (VRE)): 2 µg/mL (≈ 5.93 µM); MIC (M. tuberculosis ATCC [2]; [9]): 1 µg/mL; MIC (M. tuberculosis V-3093; Mycobacterium tuberculosis, V3093, S. No. 14 Mt-, read-out: MIC): 1 µg/mL; MIC (M. tuberculosis PC; [9]): 0.5 µg/mL; MIC (M. tuberculosis H37Ra; [9]): 0.5 µg/mL; MIC 139: 1 µg/mL (≈ 2.96 µM); MIC (M. tuberculosis M-149; Mycobacterium tuberculosis, M149, S. No. 15 Mt-, read-out: MIC): 32 µg/mL; MIC (M. tuberculosis ATCC [7]; [9]): 1 µg/mL
4 | CCc1cc(C(N)=S)ccn1 [ETH] | 16 | 4.0 | >32 | 4.0 | >32 | 2.0 µg/mL | 1.0 | 2.0 | 8.0 | 2.0 µg/mL | 1.0 µg/mL | 2.0 µg/mL | >32 | 8.0 | >32 | 32 | 2.0 µg/mL | 0.5 | 
5 | NNC(=O)c1ccncc1 [INH] | 32 | 16 | 4.0 | >32 | 16 | >32 µg/mL | 32 | 0.25 | 32 | 0.06 µg/mL | 0.25 µg/mL | 0.25 µg/mL | 4.0 | 4.0 | 8.0 | 8.0 | 0.125 µg/mL | >32 | 
